Test results taken from PMC7391767, “Molecular mechanisms underlying menthol binding and activation of TRPM8 ion channel” (Nature Communications, 2020).
Several values for one entry are separate records, joined by “and”; a condition that tells them apart may be missing. Equal values may be shown once.

Legend:
Type in all cases: cell-based
Set-up in all cases: Shifts in ANAP emission, Ave: unit: nm
ANAP-incorporated TRPM8 [1] = molecular target: T1, ANAP-incorporated TRPM8 (Mus musculus, UniProt Q8R4D5, C1006X); details: ANAP incorporation site C1006; average shift, menthol activated vs resting state
T1 construct: expressed in transfected cells; host or cells: HEK293 cells, co-transfected with the pANAP vector
Experimental: (§1) As fluorescence emission peak of ANAP shifts to a longer wavelength in more hydrophilic environment, we measured the shift in ANAP emission peak to report conformational changes. Fluorescence properties of ANAP may also be affected by other factors such as temperature and pH[31], so we performed our ANAP experiments always at room temperature (22 ± 1°C). To control for changes in solution pH, we added 3 mM HEPES in ANAP imaging solution to buffer the pH at 7.2. We genetically integrated ANAP into a specific site on TRPM8 with special tRNA and synthetase encoded by pANAP vector (Fig. 5d).
(§2) L-ANAP methyl ester was purchased from AsisChem. pANAP vector was purchased from Addgene. ANAP was incorporated into TRPM8 by introducing a TAG amber stop codon mutation as previously reported. Briefly, after co-transfection of both TRPM8 and pANAP vectors, ANAP was directly added to the culture medium to the final concentration of 20 µM. After 1–2 days, ANAP-containing culture medium was completely changed. Cells were further cultured in ANAP-free medium overnight before experiments.
(§3) ANAP fluorescence was excited by the Ar laser with a 375/28 excitation filter, a T400lp dichroic mirror, and a 435LP emission filter on an inverted fluorescence microscope (Nikon TE2000-U) using a ×40 oil-immersion objective (NA 1.3). Emission spectrum of ANAP was imaged with an Acton SpectraPro 2150i spectrograph in conjunction with an optiMOS CCD camera (Qimaging, USA). We determined the ANAP emission peak value by fitting the emission spectrum with a skewed Gauss distribution in Igor Pro version 6.1 (WaveMatrix), and then the difference in emission peak values measured in the absence and presence of menthol was reported as the shift of ANAP emission.

ANAP-incorporated TRPM8 [2] = molecular target: T2, ANAP-incorporated TRPM8 (Mus musculus, UniProt Q8R4D5, D920X)
T2 construct: expressed in transfected cells; host or cells: HEK293 cells, co-transfected with the pANAP vector
Experimental: as §1, §2, §3

ANAP-incorporated TRPM8 [3] = molecular target: T3, ANAP-incorporated TRPM8 (Mus musculus, UniProt Q8R4D5, D944X); details: ANAP incorporation site D944
T3 construct: expressed in transfected cells; host or cells: HEK293 cells, co-transfected with the pANAP vector
Experimental: as §1, §2, §3

ANAP-incorporated TRPM8 [4] = molecular target: T4, ANAP-incorporated TRPM8 (Mus musculus, UniProt Q8R4D5, F847X); details: ANAP incorporation site F847
T4 construct: expressed in transfected cells; host or cells: HEK293 cells, co-transfected with the pANAP vector
Experimental: as §1, §2, §3

ANAP-incorporated TRPM8 [5] = molecular target: T5, ANAP-incorporated TRPM8 (Mus musculus, UniProt Q8R4D5, L943X); details: ANAP incorporation site L943
T5 construct: expressed in transfected cells; host or cells: HEK293 cells, co-transfected with the pANAP vector
Experimental: as §1, §2, §3

ANAP-incorporated TRPM8 [6] = molecular target: T6, ANAP-incorporated TRPM8 (Mus musculus, UniProt Q8R4D5, N789X); details: ANAP incorporation site N789; average shift, menthol activated vs resting state
T6 construct: expressed in transfected cells; host or cells: HEK293 cells, co-transfected with the pANAP vector
Experimental: as §1, §2, §3

ANAP-incorporated TRPM8 [7] = molecular target: T7, ANAP-incorporated TRPM8 (Mus musculus, UniProt Q8R4D5, N821X); details: ANAP incorporation site N821
T7 construct: expressed in transfected cells; host or cells: HEK293 cells, co-transfected with the pANAP vector
Experimental: as §1, §2, §3

ANAP-incorporated TRPM8 [8] = molecular target: T8, ANAP-incorporated TRPM8 (Mus musculus, UniProt Q8R4D5, N852X); details: ANAP incorporation site N852
T8 construct: expressed in transfected cells; host or cells: HEK293 cells, co-transfected with the pANAP vector
Experimental: as §1, §2, §3

ANAP-incorporated TRPM8 [9] = molecular target: T9, ANAP-incorporated TRPM8 (Mus musculus, UniProt Q8R4D5, S824X)
T9 construct: expressed in transfected cells; host or cells: HEK293 cells, co-transfected with the pANAP vector
Experimental: as §1, §2, §3

ANAP-incorporated TRPM8 [10] = molecular target: T10, ANAP-incorporated TRPM8 (Mus musculus, UniProt Q8R4D5, S921X); details: ANAP incorporation site S921
T10 construct: expressed in transfected cells; host or cells: HEK293 cells, co-transfected with the pANAP vector
Experimental: as §1, §2, §3

ANAP-incorporated TRPM8 [11] = molecular target: T11, ANAP-incorporated TRPM8 (Mus musculus, UniProt Q8R4D5, T795X); details: ANAP incorporation site T795; average shift, menthol activated vs resting state
T11 construct: expressed in transfected cells; host or cells: HEK293 cells, co-transfected with the pANAP vector
Experimental: as §1, §2, §3

ANAP-incorporated TRPM8 [12] = molecular target: T12, ANAP-incorporated TRPM8 (Mus musculus, UniProt Q8R4D5, V876X); details: ANAP incorporation site V876
T12 construct: expressed in transfected cells; host or cells: HEK293 cells, co-transfected with the pANAP vector
Experimental: as §1, §2, §3

ANAP-incorporated TRPM8 [13] = molecular target: T13, ANAP-incorporated TRPM8 (Mus musculus, UniProt Q8R4D5, W898X); details: ANAP incorporation site W898
T13 construct: expressed in transfected cells; host or cells: HEK293 cells, co-transfected with the pANAP vector
Experimental: as §1, §2, §3

ANAP-incorporated TRPM8 [14] = molecular target: T14, ANAP-incorporated TRPM8 (Mus musculus, UniProt Q8R4D5, Y924X); details: ANAP incorporation site Y924
T14 construct: expressed in transfected cells; host or cells: HEK293 cells, co-transfected with the pANAP vector
Experimental: as §1, §2, §3

ANAP-incorporated TRPM8 [15] = molecular target: T15, ANAP-incorporated TRPM8 (Mus musculus, UniProt Q8R4D5, Y999X); details: ANAP incorporation site Y999; average shift, menthol activated vs resting state
T15 construct: expressed in transfected cells; host or cells: HEK293 cells, co-transfected with the pANAP vector
Experimental: as §1, §2, §3

[16] = average shift, menthol activated vs resting state
[17] = menthol activated vs resting state, single measurement

CC(C)[C@@H]1CC[C@@H](C)C[C@H]1O [menthol, (−)-menthol]
Shifts_ave (ANAP-incorporated TRPM8 [1]): 1.09 nm
Shifts in ANAP emission, Ave (ANAP-incorporated TRPM8 [2]; ANAP at D920): 3.47
Shifts_ave (ANAP-incorporated TRPM8 [2]; ANAP incorporation site D920, average shift, menthol activated vs resting state): 3.47 nm
Emission Peak at menthol activated state (ANAP-incorporated TRPM8 [2]; ANAP incorporation site D920, single measurement): 488.12 nm and 482.56 nm
Shifts_ave (ANAP-incorporated TRPM8 [3]; [16]): -0.0133 nm
Emission Peak at menthol activated state (ANAP-incorporated TRPM8 [3]; single measurement): 482.52 nm and 471.8 nm and 476.65 nm and 473.2 nm and 484.21 nm and 484.16 nm
Shifts_ave (ANAP-incorporated TRPM8 [4]; [16]): -1.40 nm
Emission Peak at menthol activated state (ANAP-incorporated TRPM8 [4]; single measurement): 476.81 nm and 476.91 nm and 474.92 nm and 474.75 nm and 473.64 nm
Shifts_ave (ANAP-incorporated TRPM8 [5]; [16]): -0.71 nm
Emission Peak at menthol activated state (ANAP-incorporated TRPM8 [5]; single measurement): 476.85 nm and 475.15 nm and 483.93 nm and 482.35 nm and 475.81 nm and 479.5 nm
Shifts_ave (ANAP-incorporated TRPM8 [6]): 0.79 nm
Shifts_ave (ANAP-incorporated TRPM8 [7]; [16]): 0.50 nm
Emission Peak at menthol activated state (ANAP-incorporated TRPM8 [7]; single measurement): 493.6 nm
Shifts_ave (ANAP-incorporated TRPM8 [8]; [16]): 1.13 nm
Shifts in emission (ANAP-incorporated TRPM8 [8]; [17]): 1.32 nm and 1.2 nm and 0.75 nm and 1.07 nm
Emission Peak at menthol activated state (ANAP-incorporated TRPM8 [8]; single measurement): 487.02 nm and 492.63 nm and 483.01 nm and 479.1 nm and 483.68 nm
Shifts in ANAP emission, Ave (ANAP-incorporated TRPM8 [9]; ANAP at S824): 2.89
Shifts_ave (ANAP-incorporated TRPM8 [9]; ANAP incorporation site S824, average shift, menthol activated vs resting state): 2.90 nm
Emission Peak at menthol activated state (ANAP-incorporated TRPM8 [9]; ANAP incorporation site S824, single measurement): 488.12 nm and 482.56 nm and 490.74 nm
Shifts_ave (ANAP-incorporated TRPM8 [10]; [16]): 1.07 nm
Shifts in emission (ANAP-incorporated TRPM8 [10]; [17]): 1.34 nm and 1.13 nm and 1.09 nm and 0.99 nm and 0.8 nm
Emission Peak at menthol activated state (ANAP-incorporated TRPM8 [10]; single measurement): 493.48 nm and 489.7 nm and 490.23 nm and 494.29 nm and 493.18 nm
Shifts_ave (ANAP-incorporated TRPM8 [11]): 1.996 nm
Shifts_ave (ANAP-incorporated TRPM8 [12]; [16]): 0.71 nm
Emission Peak at menthol activated state (ANAP-incorporated TRPM8 [12]; single measurement): 481.62 nm and 479.21 nm and 478.64 nm and 484.51 nm and 491.43 nm
Shifts_ave (ANAP-incorporated TRPM8 [13]; [16]): -1.33 nm
Emission Peak at menthol activated state (ANAP-incorporated TRPM8 [13]; single measurement): 483.12 nm and 481.69 nm and 486.71 nm and 481.28 nm
Shifts_ave (ANAP-incorporated TRPM8 [14]; [16]): -0.72 nm
Emission Peak at menthol activated state (ANAP-incorporated TRPM8 [14]; single measurement): 483.26 nm and 481.78 nm and 474.51 nm and 486.54 nm
Shifts_ave (ANAP-incorporated TRPM8 [15]): 0.79 nm
